Structures can show the parent of a compound that is named as a salt.
Tests used:
Ret wt = molecular target: T1, Ret wt (Homo sapiens, UniProt P07949); assay: HTRF kinase activity test, RET wild type; format: biochemical; conditions: Table 3; read-out: RET Enzyme (wild type) IC50
T1 construct: purchased Invitrogen PV3082
Description: This test combined peptide substrates and a single proprietary monoclonal antibody with HTRF technology, which was a highly sensitive and stable technology for detecting molecular interactions of proteins. The enzyme phosphorylates the substrate, then the Eu-labeled antibody binds to the phosphorylated substrate, and streptavidin-XL665 binds to all substrates. The TR-FRET signal was generated by the HTRF principle. […] Based on this, the inhibitory effect was evaluated.
(§1) The other compounds were diluted 3-fold gradiently with DMSO from the 10 mM stock solution to a total of 10 concentrations respectively.
(§2) Adding 4 volumes of distilled water to 1 volume of enzyme buffer 5×; 5 mM MgCl2; 1 mM DTT.
(§3) b) centrifuging the compound plate for 1 minute at 1000 g.
(§4) c) sealing the test board.
(§5) f) adding 4 μl of 1× kinase buffer to each well of the test plate, centrifuging the sample plate at 1000 g for 30 seconds, and placing it at room temperature for 10 minutes.
(§6) g) preparing a solution of 5× TK-substrate-biotin ([…]) in kinase buffer and 5×ATP (50 μM) in kinase buffer respectively.
(§7) h) starting the reaction by adding 2 μl STK-substrate-biotin and 2 μl ATP (prepared in the step g).
(§8) i) centrifuging the sample plate for 30 seconds at 1000 g. Sealing the test board and placing it at room temperature for 30 minutes.
(§9) ) centrifuging at 1000 g for 30 seconds and placing it at room temperature for 1 hour.
(§10) The inhibition rate % was calculated as follows:
(§11) Inhibition rate %=[1−(fluorescence signal value of test compound−fluorescence signal value of positive control)/(average ratio of negative control−average ratio of positive control)]*100%
(§12) Ratio: generated from the measured fluorescence signal value
(§13) The average ratio of the positive control is the average ratio of the positive control (200 nM AT13148) in the sample plate;
(§14) The average ratio of negative controls is the average ratio of negative controls (0.1% DMSO) in the sample plate.
(§15) GraphPad 6.0 was used to fit the logarithm of the % inhibition rate and the compound concentration into a nonlinear regression (dose response−variable slope) to calculate the IC50 value.

RET (V804M) = molecular target: T2, RET (V804M) (Homo sapiens, UniProt P07949, V804M); assay: HTRF kinase activity test, RET V804M; format: biochemical; conditions: Table 3; read-out: RET Enzyme (V804M) IC50
T2 construct: purchased Signalchem R02-12GG
T2 sequence (P07949 29-1114 V804M): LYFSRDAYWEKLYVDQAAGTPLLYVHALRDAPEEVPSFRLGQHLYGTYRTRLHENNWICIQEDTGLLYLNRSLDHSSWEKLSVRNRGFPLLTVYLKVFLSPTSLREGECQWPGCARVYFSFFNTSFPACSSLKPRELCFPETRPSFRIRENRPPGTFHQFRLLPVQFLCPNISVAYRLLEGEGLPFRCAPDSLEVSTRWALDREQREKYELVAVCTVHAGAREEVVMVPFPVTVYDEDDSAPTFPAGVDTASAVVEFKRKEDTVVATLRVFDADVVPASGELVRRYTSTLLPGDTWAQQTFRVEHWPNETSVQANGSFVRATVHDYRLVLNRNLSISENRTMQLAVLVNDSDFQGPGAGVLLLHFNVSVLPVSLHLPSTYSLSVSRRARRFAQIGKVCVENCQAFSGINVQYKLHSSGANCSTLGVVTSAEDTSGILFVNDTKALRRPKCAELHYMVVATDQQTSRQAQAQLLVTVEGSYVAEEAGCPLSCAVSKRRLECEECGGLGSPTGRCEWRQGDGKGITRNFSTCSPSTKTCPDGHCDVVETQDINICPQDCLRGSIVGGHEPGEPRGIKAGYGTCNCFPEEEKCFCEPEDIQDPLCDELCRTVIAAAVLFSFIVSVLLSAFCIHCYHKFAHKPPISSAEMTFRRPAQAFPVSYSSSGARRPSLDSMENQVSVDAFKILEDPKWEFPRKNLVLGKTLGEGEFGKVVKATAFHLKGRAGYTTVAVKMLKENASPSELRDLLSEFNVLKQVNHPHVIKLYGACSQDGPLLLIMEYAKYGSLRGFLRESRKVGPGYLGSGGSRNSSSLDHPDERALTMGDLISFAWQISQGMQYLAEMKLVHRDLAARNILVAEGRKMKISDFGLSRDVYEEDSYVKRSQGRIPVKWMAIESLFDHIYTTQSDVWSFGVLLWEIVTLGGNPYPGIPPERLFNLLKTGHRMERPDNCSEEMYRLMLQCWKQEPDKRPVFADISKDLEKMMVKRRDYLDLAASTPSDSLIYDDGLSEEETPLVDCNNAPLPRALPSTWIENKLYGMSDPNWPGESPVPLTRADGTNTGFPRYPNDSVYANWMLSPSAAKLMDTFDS
Description: This test combined peptide substrates and a single proprietary monoclonal antibody with HTRF technology, which was a highly sensitive and stable technology for detecting molecular interactions of proteins. The enzyme phosphorylates the substrate, then the Eu-labeled antibody binds to the phosphorylated substrate, and streptavidin-XL665 binds to all substrates. The TR-FRET signal was generated by the HTRF principle. Once the inhibitor (test compound) was added, a weaker TR-FRET signal is obtained. Based on this, the inhibitory effect was evaluated.
as §1, §2
a) Transferring 10 nl of the compound dilution (prepared in 5.2) to each well of the test plate (784075, Greiner);
as §3, §4
d) preparing 5×Ret wt (0.2 ng/μl) and 5×Ret V804L (0.5 ng/μl)/5×Ret V804M (0.5 ng/μl) in 1× kinase buffer respectively.
e) adding 2 μl of 5×Ret wt or 2 μl of Ret V804L/RET V804M to a 384-well test plate (784075, Greiner).
as §5, §6, §7, §8
j) preparing 4×Sa-XL 665 (250 nM) in HTRF detection buffer.
k) adding 5 μl of Sa-XL 665 and 5 μl of TK-antibody-Cryptate (prepared in the step i) to each well of the test plate.
as §9
m) reading the fluorescence signal values at 615 nm (Cryptate) and 665 nm (XL665) on the Envision 2104 plate reader.
Calculating the ratio of each hole (665 nm/615 nm).
as §10, §11, §12, §13, §14, §15

TT Cell = assay: Cell inhibitory activity test (CCK8); format: cell-based; conditions: Homo sapiens, TT, Table 3, 72 hours incubation
Description: Cell Inhibitory Activity Test
1. preparing 90 μl of cell suspension in a 96-well plate with 4000 cells/well. Pre-incubating the culture plate in an incubator for 24 hours (37° C., 5% CO2).
2. adding 10 μl of test compounds of different concentrations to each well of cells, and each compound has multiple wells.
3. incubating the culture plate in the incubator for 72 hours.
4. adding 10 μl of CCK8 solution to each well (be careful not to generate bubbles in the well, otherwise they would affect the reading of the OD value).
5. incubating the culture plate in the incubator for 1-2 hours.
6. measuring the absorbance at 450 nm with a microplate reader.
7. according to the compound concentration and absorbance value, GraphpadPrism software was used to calculate the IC50 of each compound.

[1] = tested on: RET wild-type, mutant and/or fusion-type; assay: Overall statement on RET inhibitory activity (summary of Table 3); conditions: statement in words summarising Table 3
Description: As shown in the above table, the example compounds of the present disclosure have improved inhibitory activity against RET wild-type, mutant and/or fusion-type.

T1 sequence (P07949 29-1114): as the sequence (P07949 29-1114 V804M) above, with M776V counted along it

Row | Compound | IC50 (Ret wt) | IC50 (RET (V804M)) | IC50 (TT Cell) | inhibitory activity against RET wild-type, mutant and/or fusion-type [1]
1 | COc1ccc(CN2C3CC2CN(c2ccc(-c4cc(OCCOC5CC5)cn5nc(N)c(C#N)c45)cn2)C3)cn1 [APS113, 2-amino-6-(2-cyclopropoxyethoxy)-4-(6-(6-((6-methoxypyridin-3-yl)methyl)-3,6-diazabicyclo[3.1.1]heptan-3-yl)pyridin-3-yl)pyrazolo[1,5-a]pyridine-3-carbonitrile] | < 1 nM | < 1 nM | 83.5 nM | excellent activity
2 | CCOc1cc(-c2ccc(N3CC4CC(C3)N4Cc3cnc(OC)c(Cl)c3)nc2)c2c(C#N)c(N)nn2c1 [APS105] | < 1 nM | < 1 nM | 28.1 nM | excellent activity
3 | COc1ccc(CN2C3CC2CN(c2ccc(-c4cc(OCC(C)(C)O)cn5nc(N)c(C#N)c45)cn2)C3)cn1 [APS089] | 1.8 nM | 1.6 nM | 18.6 nM | excellent activity
4 | COCCOc1cc(-c2ccc(N3CC4CC(C3)N4Cc3ccc(OC)nc3)nc2)c2c(C#N)c(N)nn2c1 [APS097, 2-amino-6-(2-methoxyethoxy)-4-(6-(6-((6-methoxypyridin-3-yl)methyl)-3,6-diazabicyclo[3.1.1]heptan-3-yl)pyridin-3-yl)pyrazolo[1,5-a]pyridine-3-carbonitrile] | < 1 nM | < 1 nM | 75.5 nM | excellent activity
5 | COc1ccc(CN2C3CC2CN(c2ccc(-c4cc(OCCF)cn5nc(N)c(C#N)c45)cn2)C3)cn1 [APS119, 2-amino-6-(2-fluoroethoxy)-4-(6-(6-((6-methoxypyridin-3-yl)methyl)-3,6-diazabicyclo[3.1.1]heptan-3-yl)pyridin-3-yl)pyrazolo[1,5-a]pyridine-3-carbonitrile] | < 1 nM | < 1 nM | 6.6 nM | excellent activity
6 | COc1ccc(CN2C3CC2CN(c2ccc(-c4cc(OCC(F)F)cn5nc(N)c(C#N)c45)cn2)C3)cn1 [APS114, 2-amino-6-(2,2-difluoroethoxy)-4-(6-(6-((6-methoxypyridin-3-yl)methyl)-3,6-diazabicyclo[3.1.1]heptan-3-yl)pyridin-3-yl)pyrazolo[1,5-a]pyridine-3-carbonitrile] | 2 nM | < 1 nM |  | excellent activity
7 | CCOCCOc1cc(-c2ccc(N3CC4CC(C3)N4Cc3ccc(OC)nc3)nc2)c2c(C#N)c(N)nn2c1 [APS109, 2-amino-6-(2-ethoxyethoxy)-4-(6-(6-((6-methoxypyridin-3-yl)methyl)-3,6-diazabicyclo [3.1.1]heptan-3-yl)pyridin-3-yl)pyrazolo[1,5-a]pyridine-3-carbonitrile] | < 1 nM | < 1 nM | 57.9 nM | excellent activity
8 | CCOc1cc(-c2cnc(N3CC4CC(C3)N4Cc3ccc(OC)nc3)cn2)c2c(C#N)c(N)nn2c1 [APS092, 2-amino-6-ethoxy-4-(5-(6-((6-methoxypyridin-3-yl)methyl)-3,6-diazabicyclo[3.1.1]heptane-3-yl)pyrazin-2-yl)pyrazolo[1,5-a]pyridine-3-carbonitrile] | 4.3 nM | 2.7 nM | 60 nM | excellent activity
9 | COc1ccc(CN2C3CC2CN(c2cnc(-c4cc(OC[C@@H]5CN(C)CCO5)cn5nc(N)c(C#N)c45)cn2)C3)cn1 [APS107, 2-amino-4-(5-(6-((6-methoxypyridin-3-yl)methyl)-3,6-diazabicyclo[3.1.1]heptan-3-yl)pyrazin-2-yl)-6-(((S)-4-methylmorpholin-2-yl)methoxy)pyrazolo[1,5-a]pyridine-3-carbonitrile] | < 1 nM | < 1 nM | 16.3 nM | excellent activity
10 | CCOc1cc(-c2ccc(N3CC4CC(C3)N4Cc3ccc(OC)nc3)nc2)c2c(C#N)c(F)nn2c1 [APS096] | 122 nM | 186 nM |  | 
11 | COc1ccc(CN2C3CC2CN(c2cnc(-c4cc(OC[C@@H]5CNCCO5)cn5nc(N)c(C#N)c45)cn2)C3)cn1 [APS087, 2-amino-4-(5-(6-((6-methoxypyridin-3-yl)methyl)-3,6-diazabicyclo[3.1.1]heptan-3-yl)pyrazin-2-yl)-6-(((S)-morpholin-2-yl)methoxy)pyrazolo[1,5-a]pyridine-3-carbonitrile trifluoroacetate] | < 1 nM | < 1 nM | < 1 nM | excellent activity
12 | COc1ccc(CN2C3CC2CN(c2cnc(-c4cc(OC[C@@H]5CN(C)CCO5)cn5nc(F)c(C#N)c45)cn2)C3)cn1 [APS104, 2-fluoro-4-(5-(6-((6-methoxypyridin-3-yl)methyl)-3,6-diazabicyclo[3.1.1]heptan-3-yl)pyrazin-2-yl)-6-(((S)-4-methylmorpholin-2-yl)methoxy)pyrazolo[1,5-a]pyridine-3-carbonitrile] | 6.9 nM | 14 nM |  | excellent activity
13 | CCOc1cc(-c2ccc(N3CC4CC(C3)N4Cc3ccc(OC)nc3)nc2)c2c(C#N)c(N)nn2c1 [APS095] | < 1 nM | < 1 nM | 38.6 nM | excellent activity
14 | COc1ccc(CN2C3CC2CN(c2ccc(-c4cc(OCC(C)(C)O)cn5nc(N)c(C(N)=O)c45)cn2)C3)cn1 [APS106] | 745 nM | 971 nM |  | 
15 | COc1ccc(CN2C3CC2CN(c2ccc(-c4cc(OC(F)F)cn5nc(N)c(C#N)c45)cn2)C3)cn1 [APS115, 2-amino-6-(difluoromethoxy)-4-(6-(6-((6-methoxypyridin-3-yl)methyl)-3,6-diazabicyclo[3.1.1]heptan-3-yl)pyridin-3-yl)pyrazolo[1,5-a]pyridine-3-carbonitrile] | 45.9 nM | 8.8 nM |  | 
16 | COc1ccc(CN2C3CC2CN(c2ccc(-c4cc(OCC(C)(C)O)cn5nc(NC(C)=O)c(C#N)c45)cn2)C3)cn1 [APS093] | 2890 nM | 1550 nM |  | 
17 | COc1ccc(CN2C3CC2CN(c2ccc(-c4cc(OCC(C)(C)O)cn5nc(F)c(C#N)c45)cn2)C3)cn1 [APS090] | 54 nM | 486 nM | 31.4 nM | 
18 | COCCOc1cc(-c2ccc(N3CC4CC(C3)N4Cc3cnc(OC)c(Cl)c3)nc2)c2c(C#N)c(N)nn2c1 [APS108, 2-amino-4-(6-(6-((5-chloro-6-methoxypyridin-3-yl)methyl)-3,6-diazabicyclo[3.1.1]heptane-3-yl)pyridin-3-yl)-6-(2-methoxyethoxy)pyrazolo[1,5-a]pyridine-3-carbonitrile] | < 1 nM | < 1 nM | 10.7 nM | excellent activity

From patent publication US20210379056A1, “SUBSTITUTED PYRAZOLE FUSED RING DERIVATIVE, PREPARATION METHOD THEREFOR, AND APPLICATION THEREOF” (Applied Pharmaceutical Science, Inc., priority 2018, published 2021)
